Our source for the EC50 values is US20250115669A1, “FGFR1/KLB Targeting Agonistic Antigen-Binding Proteins and Conjugates Thereof with GLP-1R Agonistic Peptides” (SANOFI, priority 2020, published 2025).

Format in all cases: cell-based
The target of assay [1] is T1, human GLP-1 receptor (Homo sapiens, UniProt P43220).
T1 construct: expressed in transfected cells; host or cells: PSC-HEK-293
As to the kind of experiment: HTRF cAMP assay in HEK-293 cells expressing human GLP-1 receptor. Here is the method:
Each vial contained 1.8 ml cells. The vials were slowly frozen to −80° C. in isopropanol, and then transferred in liquid nitrogen for storage.
Cells were resuspended in assay buffer (cell buffer plus 2 mM IBMX) and adjusted to a cell density of 1 million cells/ml.
For measurement of cAMP generation, 5 μl cells (final 5000 cells/well) and 5 μl of test compound were added to a 384-well plate, followed by incubation for 30 min at room temperature.
The cAMP generated was determined using a kit from Cisbio Corp. based on HTRF (Homogenous Time Resolved Fluorescence). The cAMP assay was performed according to manufacturer's instructions (Cisbio).
(Time-resolved FRET reads energy transfer from a long-lived donor to a nearby acceptor.)

The target of assay [2] is T2, human glucagon (GCG) receptor (Homo sapiens, UniProt P47871).
T2 construct: expressed in transfected cells; host or cells: PSC-HEK-293
As to the kind of experiment: HTRF cAMP assay in HEK-293 cells expressing human glucagon receptor.

For assay [3], the target named is T3, human GIP receptor (Homo sapiens, UniProt P48546).
T3 construct: expressed in transfected cells; host or cells: PSC-HEK-293
T3 sequence (P48546 22-466): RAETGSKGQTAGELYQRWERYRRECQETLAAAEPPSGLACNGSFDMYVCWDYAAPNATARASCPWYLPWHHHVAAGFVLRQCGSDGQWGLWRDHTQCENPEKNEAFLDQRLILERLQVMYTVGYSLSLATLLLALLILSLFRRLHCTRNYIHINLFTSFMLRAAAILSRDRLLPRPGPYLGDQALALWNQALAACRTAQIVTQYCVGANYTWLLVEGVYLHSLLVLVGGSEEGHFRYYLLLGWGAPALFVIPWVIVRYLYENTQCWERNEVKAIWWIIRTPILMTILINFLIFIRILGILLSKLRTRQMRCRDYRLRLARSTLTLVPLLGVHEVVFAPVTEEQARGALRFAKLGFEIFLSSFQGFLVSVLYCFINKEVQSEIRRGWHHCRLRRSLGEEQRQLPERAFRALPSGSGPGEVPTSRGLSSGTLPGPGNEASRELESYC
Briefly: HTRF cAMP assay in HEK-293 cells expressing human GIP receptor.

Setting [4] is: HEK-293 cells, read-out: HTRF cAMP EC50 Human GLP-1R.
The mark [5] stands for this setting: HEK-293 cells, read-out: HTRF cAMP EC50 Human GCGR.
The mark [6] stands for this setting: HEK-293 cells, read-out: HTRF cAMP EC50 Human GIPR.

Read-outs that look alike come from different tables or passages of the source. Peptide text beside a SMILES is read from it. Bounds are passed on as bounds.

T2 sequence (P47871 26-477): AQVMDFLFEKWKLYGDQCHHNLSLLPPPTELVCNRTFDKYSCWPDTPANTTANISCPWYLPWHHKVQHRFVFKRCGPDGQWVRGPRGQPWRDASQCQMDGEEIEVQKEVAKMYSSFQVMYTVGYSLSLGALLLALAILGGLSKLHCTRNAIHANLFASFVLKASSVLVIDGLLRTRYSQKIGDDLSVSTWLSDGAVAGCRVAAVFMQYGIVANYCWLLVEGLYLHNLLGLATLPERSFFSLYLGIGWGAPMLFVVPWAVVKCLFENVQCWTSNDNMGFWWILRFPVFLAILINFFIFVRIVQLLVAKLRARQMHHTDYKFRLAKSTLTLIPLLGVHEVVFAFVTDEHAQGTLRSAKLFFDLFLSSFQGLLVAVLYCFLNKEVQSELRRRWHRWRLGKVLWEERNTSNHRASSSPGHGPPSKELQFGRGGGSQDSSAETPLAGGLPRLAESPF
T1 sequence (P43220 24-463): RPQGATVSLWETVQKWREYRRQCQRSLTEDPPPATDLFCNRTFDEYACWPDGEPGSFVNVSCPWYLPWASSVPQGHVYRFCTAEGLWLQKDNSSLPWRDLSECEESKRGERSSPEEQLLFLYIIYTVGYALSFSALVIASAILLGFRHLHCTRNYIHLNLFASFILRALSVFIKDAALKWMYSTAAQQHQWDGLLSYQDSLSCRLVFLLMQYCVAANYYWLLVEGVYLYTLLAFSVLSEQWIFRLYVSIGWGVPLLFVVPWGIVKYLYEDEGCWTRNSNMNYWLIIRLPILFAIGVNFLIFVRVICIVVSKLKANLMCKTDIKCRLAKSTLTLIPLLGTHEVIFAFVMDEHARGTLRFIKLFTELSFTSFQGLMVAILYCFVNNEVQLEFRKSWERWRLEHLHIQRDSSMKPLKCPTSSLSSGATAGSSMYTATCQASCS

The term EC50 denotes the midpoint of the concentration-response curve. As for `CC[C@H](C)[C@H](NC(=O)[C@H](Cc1ccccc1)NC(=O)[C@H](CC(C)C)NC(=O)[C@H](CCCNC(=N)N)NC(=O)[C@@H](NC(=O)[C@H](C)NC(=O)[C@H](CCC(=O)O)NC(=O)[C@H](CCC(=O)O)NC(=O)[C@H](CCC(=O)O)NC(=O)[C@H](CC(C)C)NC(=O)[C@H](CCC(N)=O)NC(=O)[C@H](CCCCN)NC(=O)[C@H](CO)NC(=O)[C@H](CCCCN)NC(=O)[C@H](CC(=O)O)NC(=O)[C@H](CO)NC(=O)[C@@H](NC(=O)[C@H](Cc1ccccc1)NC(=O)[C@@H](NC(=O)CNC(=O)[C@H](CCC(=O)O)NC(=O)CNC(=O)[C@H](Cc1c[nH]cn1)NC(=O)CN)[C@@H](C)O)[C@@H](C)O)C(C)C)C(=O)N[C@@H](CCC(=O)O)C(=O)N[C@@H](Cc1c[nH]c2ccccc12)C(=O)N[C@@H](CC(C)C)C(=O)N[C@@H](CCCCN)C(=O)N[C@@H](C)C(=O)NCC(=O)NCC(=O)N1CCC[C@H]1C(=O)N[C@@H](CO)C(=O)N[C@@H](CO)C(=O)NCC(=O)N[C@@H](C)C(=O)N1CCC[C@H]1C(=O)N1CCC[C@H]1C(=O)N1CCC[C@H]1C(=O)N[C@@H](CO)C(N)=O` [Ab P021] (H-GHGEGTFTSDKSKQLEEEAVRLFIEWLKAGGPSSGAPPPS-NH2), the values for the EC50 in assay [1], in assay [2] and in assay [3] were 0.0276 nM, greater than 10 nM and greater than 10 nM, respectively.
Regarding `CC[C@H](C)[C@H](NC(=O)[C@H](CC(C)C)NC(=O)[C@H](Cc1c[nH]c2ccccc12)NC(=O)[C@H](CC(C)C)NC(=O)[C@@H](NC(=O)[C@H](Cc1ccccc1)NC(=O)[C@H](CC(C)C)NC(=O)[C@H](CCCNC(=N)N)NC(=O)[C@@H](NC(=O)[C@H](CC(C)C)NC(=O)[C@H](CCCNC(=N)N)NC(=O)[C@H](CCCCN)NC(=O)[C@H](CCC(=O)O)NC(=O)[C@H](CC(C)C)NC(=O)[C@H](CCC(N)=O)NC(=O)[C@H](CCCCN)NC(=O)[C@H](CO)NC(=O)[C@H](CCCCN)NC(=O)[C@H](CC(=O)O)NC(=O)[C@H](CO)NC(=O)[C@@H](NC(=O)[C@H](Cc1ccccc1)NC(=O)[C@@H](NC(=O)CNC(=O)[C@H](CCC(=O)O)NC(=O)CNC(=O)[C@@H](N)Cc1c[nH]cn1)[C@@H](C)O)[C@@H](C)O)C(C)C)[C@@H](C)CC)C(=O)N[C@@H](C)C(=O)NCC(=O)NCC(=O)N[C@@H](Cc1c[nH]cn1)C(=O)N[C@@H](CO)C(=O)N[C@@H](CO)C(=O)NCC(=O)N[C@@H](CCCCN)C(=O)N1CCC[C@H]1C(=O)N1CCC[C@H]1C(=O)N1CCC[C@H]1C(=O)N[C@@H](CCCCN)C(N)=O` [Ab P023] (H-HGEGTFTSDKSKQLEKRLVRLFILWLIAGGHSSGKPPPK-NH2; N-terminus assumed), the EC50 in assay [1] (setting [4]) was 0.0017 nM; in assay [2] (setting [5]), greater than 10 nM; in assay [3] (setting [6]) it was greater than 10 nM.
On to `CC[C@H](C)[C@H](NC(=O)[C@H](CC(C)C)NC(=O)[C@H](Cc1c[nH]c2ccccc12)NC(=O)[C@H](Cc1ccc(O)cc1)NC(=O)[C@@H](NC(=O)[C@H](Cc1ccccc1)NC(=O)[C@H](CC(C)C)NC(=O)[C@H](CCCNC(=N)N)NC(=O)[C@@H](NC(=O)[C@H](CC(C)C)NC(=O)[C@H](CCCNC(=N)N)NC(=O)[C@H](CCCCN)NC(=O)[C@H](CCC(=O)O)NC(=O)[C@H](CC(C)C)NC(=O)[C@H](CCC(N)=O)NC(=O)[C@H](CCCCN)NC(=O)[C@H](CO)NC(=O)[C@H](CCCCN)NC(=O)[C@H](CC(=O)O)NC(=O)[C@H](CO)NC(=O)[C@@H](NC(=O)[C@H](Cc1ccccc1)NC(=O)[C@@H](NC(=O)CNC(=O)[C@H](CCC(=O)O)NC(=O)CNC(=O)[C@@H](N)Cc1c[nH]cn1)[C@@H](C)O)[C@@H](C)O)C(C)C)[C@@H](C)CC)C(=O)N[C@@H](C)C(=O)NCC(=O)NCC(=O)N[C@@H](Cc1c[nH]cn1)C(=O)N[C@@H](CO)C(=O)N[C@@H](CO)C(=O)NCC(=O)N[C@@H](CCCCN)C(=O)N1CCC[C@H]1C(=O)N1CCC[C@H]1C(=O)N1CCC[C@H]1C(=O)N[C@@H](CCCCN)C(N)=O` [Ab P024] (H-HGEGTFTSDKSKQLEKRLVRLFIYWLIAGGHSSGKPPPK-NH2; N-terminus assumed), for which the EC50 in assay [1] (setting [4]) was 0.0026 nM; in assay [2] (setting [5]), greater than 10 nM; in assay [3] (setting [6]), no less than 10 nM.
The like results for `CC[C@H](C)[C@H](NC(=O)[C@H](CC(C)C)NC(=O)[C@H](Cc1c[nH]c2ccccc12)NC(=O)[C@H](Cc1ccc(O)cc1)NC(=O)[C@@H](NC(=O)[C@H](Cc1ccccc1)NC(=O)[C@H](CC(C)C)NC(=O)[C@H](CCCNC(=N)N)NC(=O)[C@H](CCC(N)=O)NC(=O)[C@H](CC(C)C)NC(=O)[C@H](CCCNC(=N)N)NC(=O)[C@H](CCCCN)NC(=O)[C@H](CCC(=O)O)NC(=O)[C@H](CC(C)C)NC(=O)[C@H](CCC(N)=O)NC(=O)[C@H](CCCCN)NC(=O)[C@H](CO)NC(=O)[C@H](CC(C)C)NC(=O)[C@H](CC(=O)O)NC(=O)[C@H](CO)NC(=O)[C@@H](NC(=O)[C@H](Cc1ccccc1)NC(=O)[C@@H](NC(=O)CNC(=O)[C@H](CCC(=O)O)NC(=O)CNC(=O)[C@@H](N)Cc1c[nH]cn1)[C@@H](C)O)[C@@H](C)O)[C@@H](C)CC)C(=O)N[C@@H](C)C(=O)NCC(=O)NCC(=O)N[C@@H](Cc1c[nH]cn1)C(=O)N[C@@H](CO)C(=O)N[C@@H](CO)C(=O)NCC(=O)N[C@@H](CCCCN)C(=O)N1CCC[C@H]1C(=O)N1CCC[C@H]1C(=O)N1CCC[C@H]1C(=O)N[C@@H](CCCCN)C(N)=O` [Ab P025] (H-HGEGTFTSDLSKQLEKRLQRLFIYWLIAGGHSSGKPPPK-NH2; N-terminus assumed) were, in that order, 0.0016 nM, 0.545 nM and 1.6 nM.
`CC[C@H](C)[C@H](NC(=O)[C@H](Cc1ccccc1)NC(=O)[C@H](CC(C)C)NC(=O)[C@H](CCCNC(=N)N)NC(=O)[C@H](CCC(N)=O)NC(=O)[C@H](CC(C)C)NC(=O)[C@H](CCCNC(=N)N)NC(=O)[C@H](CCCCN)NC(=O)[C@H](CCC(=O)O)NC(=O)[C@H](CC(C)C)NC(=O)[C@H](CCC(N)=O)NC(=O)[C@H](CCCCN)NC(=O)[C@H](CO)NC(=O)[C@H](CC(C)C)NC(=O)[C@H](CC(=O)O)NC(=O)[C@H](CO)NC(=O)[C@@H](NC(=O)[C@H](Cc1ccccc1)NC(=O)[C@@H](NC(=O)CNC(=O)[C@H](CCC(=O)O)NC(=O)CNC(=O)[C@@H](N)Cc1c[nH]cn1)[C@@H](C)O)[C@@H](C)O)C(=O)N[C@@H](Cc1ccc(O)cc1)C(=O)N[C@@H](Cc1c[nH]c2ccccc12)C(=O)N[C@@H](CC(C)C)C(=O)N[C@@H](CCCCN)C(=O)N[C@@H](C)C(=O)NCC(=O)NCC(=O)N[C@@H](Cc1c[nH]cn1)C(=O)N[C@@H](CO)C(=O)N[C@@H](CO)C(=O)NCC(=O)N[C@@H](CCCCN)C(=O)N1CCC[C@H]1C(=O)N1CCC[C@H]1C(=O)N1CCC[C@H]1C(=O)N[C@@H](CCCCN)C(N)=O` [Ab P026] (H-HGEGTFTSDLSKQLEKRLQRLFIYWLKAGGHSSGKPPPK-NH2; N-terminus assumed): the EC50 in assay [1] (setting [4]) came to 0.002 nM; in assay [2] (setting [5]), 3.9 nM; in assay [3] (setting [6]), 2.48 nM.
For `CC[C@H](C)[C@H](NC(=O)[C@H](Cc1ccccc1)NC(=O)[C@H](CC(C)C)NC(=O)[C@H](CCCNC(=N)N)NC(=O)[C@H](CCC(N)=O)NC(=O)[C@H](C)NC(=O)[C@H](CCC(=O)O)NC(=O)[C@H](CCC(=O)O)NC(=O)[C@H](CCC(=O)O)NC(=O)[C@H](CC(C)C)NC(=O)[C@H](CCC(N)=O)NC(=O)[C@H](CCCCN)NC(=O)[C@H](CO)NC(=O)[C@H](CC(C)C)NC(=O)[C@H](CC(=O)O)NC(=O)[C@H](CO)NC(=O)[C@@H](NC(=O)[C@H](Cc1ccccc1)NC(=O)[C@@H](NC(=O)CNC(=O)[C@H](CCC(=O)O)NC(=O)CNC(=O)[C@H](Cc1c[nH]cn1)NC(=O)CN)[C@@H](C)O)[C@@H](C)O)C(=O)N[C@@H](CCC(=O)O)C(=O)N[C@@H](Cc1c[nH]c2ccccc12)C(=O)N[C@@H](CC(C)C)C(=O)N[C@@H](CCCCN)C(=O)N[C@@H](C)C(=O)NCC(=O)NCC(=O)N1CCC[C@H]1C(=O)N[C@@H](CO)C(=O)N[C@@H](CO)C(=O)NCC(=O)N[C@@H](CCCCN)C(=O)N1CCC[C@H]1C(=O)N1CCC[C@H]1C(=O)N1CCC[C@H]1C(=O)N[C@@H](CCCCN)C(N)=O` [Ab P036] (H-GHGEGTFTSDLSKQLEEEAQRLFIEWLKAGGPSSGKPPPK-NH2; N-terminus assumed), in that order: 0.125 nM, greater than 10 nM and greater than 10 nM.
